# Laboratory results taken from patent US20050287594A1 (priority 2000, published 2005).
# Where two headings read alike, the source gives them in different places.
# Legend:
# cALDH-I [1] = target: T1, cALDH-I (Rattus norvegicus, UniProt P51647); assay type: biochemical
# T1 construct: His tag (pTrcHis vector) (N); made in house; host or cells: E. coli BL-21
# T1 sequence (P51647 1-501): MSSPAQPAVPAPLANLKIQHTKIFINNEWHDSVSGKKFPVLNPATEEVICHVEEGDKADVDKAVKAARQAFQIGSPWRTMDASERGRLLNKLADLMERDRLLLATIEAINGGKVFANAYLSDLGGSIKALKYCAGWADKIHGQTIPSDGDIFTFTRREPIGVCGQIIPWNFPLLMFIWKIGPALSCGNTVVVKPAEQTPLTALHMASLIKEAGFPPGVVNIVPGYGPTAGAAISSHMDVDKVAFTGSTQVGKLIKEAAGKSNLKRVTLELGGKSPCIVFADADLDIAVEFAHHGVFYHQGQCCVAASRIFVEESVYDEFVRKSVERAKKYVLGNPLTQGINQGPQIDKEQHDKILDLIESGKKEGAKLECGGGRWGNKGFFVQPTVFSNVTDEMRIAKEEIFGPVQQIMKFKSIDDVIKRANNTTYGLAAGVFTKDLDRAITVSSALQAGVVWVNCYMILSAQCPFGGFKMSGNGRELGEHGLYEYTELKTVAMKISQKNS
# [2] = pH 8
# cALDH-I [3] = target: T1, cALDH-I; assay type: binding
# cALDH-I [4] = target: T1, cALDH-I; conditions: read-out: Michealis constant Km, reported literature value; cited from earlier work
# rat testis proteome = assay type: binding
smiles,measurement,setting,value
"CCCCCCCCOS(=O)(=O)c1ccccn1 [Sulfonate 15, 1-(2-Pyridylsulfonyl)oxo-octane]",average Kobs/[I],cALDH-I [1],(9.7+1.8)×10^3 M^−min^−
same,cALDH-I inactivation (in words),cALDH-I [1],completely inactivated
same,effect of NAD^+ on inactivation of cALDH-I by 15,cALDH-I [1],completely protected the enzyme from inactivation
same,stability in reaction buffer,[2],stable to the assay conditions employed
same,blocking of the labeling of cALDH-I by 1,cALDH-I [3],effectively blocked the labeling of cALDH-I by 1
"CCC=O [propionaldehyde, reference compound]",Km,cALDH-I [4],6.5 µM
same,Km,cALDH-I [1]; read-out: Michealis constant Km,4.2 µM
"O=C(CCCCCCCCCOS(=O)(=O)c1ccccn1)NCCCCCNC(=O)CCCC[C@@H]1SC[C@@H]2NC(=O)N[C@@H]21 [sulfonate 1, 10-((2-pyridylsulfonyl)oxo)-N-biotinamidopentyldecanamide]",specific (heat-sensitive) proteome reactivity,rat testis proteome,labeled a 55 kDa protein and a 31 kDa protein
"O=C(CCCCCCCCCOS(=O)(=O)c1ccccc1)NCCCCCNC(=O)CCCCC1SCC2NC(=O)NC21 (stereo not drawn) [sulfonate 2, 10-((Benzenesulfonyl)oxo)-N-biotinamidopentyldecanamide]",specific (heat-sensitive) proteome reactivity,rat testis proteome,reacted with three of the four proteins labeled by 4 and 5
"Cc1ccc(S(=O)(=O)OCCCCCCCCCC(=O)NCCCCCNC(=O)CCCCC2SCC3NC(=O)NC32)cc1 (stereo not drawn) [sulfonate 3, 10-((p-Toluenesulfonyl)oxo)-N-biotinamidopentyldecanamide]",specific (heat-sensitive) proteome reactivity,rat testis proteome,specifically labeled one 55 kDa protein
"COc1ccc(S(=O)(=O)OCCCCCCCCCC(=O)NCCCCCNC(=O)CCCCC2SCC3NC(=O)NC32)cc1 (stereo not drawn) [sulfonate 4, 10-((4-Methoxybenzenesulfonyl)oxo)-N-biotinamidopentyldecanamide]",nonspecific (heat-insensitive) reactivity with the preheated proteome,rat testis proteome,showed significant additional reactivity with the preheated proteome
same,specific (heat-sensitive) proteome reactivity,rat testis proteome,labeled four members of the proteome in a heat-sensitive manner
"CS(=O)(=O)OCCCCCCCCCC(=O)NCCCCCNC(=O)CCCCC1SCC2NC(=O)NC21 (stereo not drawn) [sulfonate 5, 10-((Methylsulfonyl)oxo)-N-biotinamidopentyldecanamide]",nonspecific (heat-insensitive) reactivity with the preheated proteome,rat testis proteome,showed significant additional reactivity with the preheated proteome
same,specific (heat-sensitive) proteome reactivity,rat testis proteome,labeled four members of the proteome in a heat-sensitive manner
"CCCCS(=O)(=O)OCCCCCCCCCC(=O)NCCCCCNC(=O)CCCCC1SCC2NC(=O)NC21 (stereo not drawn) [sulfonate 6, 10-((Butylsulfonyl)oxo)-N-biontinamidopentyldecanamide]",specific (heat-sensitive) proteome reactivity,rat testis proteome,specifically labeled one 55 kDa protein
"O=C(CCCCCCCCCOS(=O)(=O)c1ccc([N+](=O)[O-])cc1)NCCCCCNC(=O)CCCCC1SCC2NC(=O)NC21 (stereo not drawn) [sulfonate 8, 10-((4-Nitrobenzenesulfonyl)oxo)-N-biotinamidopentyldecanamide]",specific (heat-sensitive) proteome reactivity,rat testis proteome,"reacted specifically with a 55 kDa protein, as well as two additional proteins poorly labeled by the other reagents"
"O=C(CCCCCCCCCOS(=O)(=O)c1cccc2cccnc12)NCCCCCNC(=O)CCCCC1SCC2NC(=O)NC21 (stereo not drawn) [sulfonate 9, 10-((8-Quinolinesulfonyl)oxo)-N-biotinamidopentyldecanamide]",specific (heat-sensitive) proteome reactivity,rat testis proteome,"reacted specifically with a 55 kDa protein, as well as two additional proteins poorly labeled by the other reagents"
"O=C(CCCCCCCCCOS(=O)(=O)c1ccc2ccccc2c1)NCCCCCNC(=O)CCCCC1SCC2NC(=O)NC21 (stereo not drawn) [sulfonate 10, 10-((2-Naphthalenesulfonyl)oxo)-N-biotinamidopentyldecanamide]",specific (heat-sensitive) proteome reactivity,rat testis proteome,specifically labeled one 55 kDa protein
O=C(CCCCCCCCCOS(=O)(=O)c1cccs1)NCCCCCNC(=O)CCCCC1SCC2NC(=O)NC21 (stereo not drawn) [sulfonate 11],specific (heat-sensitive) proteome reactivity,rat testis proteome,"reacted specifically with a 55 kDa protein, as well as two additional proteins poorly labeled by the other reagents"
"CCOS(=O)(=O)c1ccccn1 [sulfonate 16, 1-(2-Pyridylsulfonyl)oxo-ethane]",% Activity Remaining,cALDH-I [1],42%
same,Kobs/[I],cALDH-I [1],0.00417 M⁻¹ s⁻¹
same,cALDH-I inactivation (in words),cALDH-I [1],weak
same,"second order inhibition rate constant, times lower than that determined for 15",cALDH-I [1],40000 times
same,blocking of the labeling of cALDH-I by 1,cALDH-I [3],did not block the labeling of cALDH-I by 1
"CCCCCCCCOS(C)(=O)=O [sulfonate 17, 1-(Methanesulfonyl)oxo-octane]",% Activity Remaining,cALDH-I [1],100%
same,cALDH-I inactivation (in words),cALDH-I [1],no inhibition
same,blocking of the labeling of cALDH-I by 1,cALDH-I [3],did not block the labeling of cALDH-I by 1
